Results published in patent US12617818B2, “Compositions and methods for modulating myosin subfragment-2 coiled coil stability and methods for using them” (UNIVERSITY OF NORTH TEXAS, priority 2020, dated 2026).

What was measured:
[1] = tested on: rabbit skeletal myosin HMM; assay: In vitro motility assay of actin thin filaments over myosin HMM; assay type: biochemical
Excerpt: In vitro motility assay a classic method to determine the sliding velocity of actin thin filaments over immobilized myosin in the presence of ATP (Kron et al., 1991). The assay involves the immobilization of myosin either in thick filament assembly or through individual myosin molecule on a nitrocellulose or dichlorodimethylsilane treated coverslip. Fluorescently labelled actin thin filament is allowed to slide across the bound myosin molecule upon addition of ATP. Sliding of actin over myosin treated with myosin S2 binding proteins would establish their effect over acto-myosin interaction and overall force produced. Myosin heavy meromyosin would be enough to test the effect of stabilizer and destabilizer over the acto-myosin interaction, however to test the effect of MyBPC over myosin reconstituted in its thick filament form would be required since MyBPC binds to both light meromyosin and myosin S2. Myosin in its thick filament form will improve the binding of MyBPC to a myosin molecule rather than a single myosin molecule immobilized on a glass surface.
Rabbit skeletal myosin is dialyzed against buffer containing 0.5 M potassium chloride and 10 mM imidazole with pH 7.0 overnight to remove the impurities. Dialyzed myosin undergoes trypsin digestion with 1 mM magnesium chloride and α-chymotrypsin, digestion was stopped after addition of phenylmethylsulfonylfluoride in methanol at room temperature. Tryptic digest of myosin is dialyzed overnight at 4° C. against buffer containing 0.04 M potassium chloride and 10 mM imidazole with pH 7.0. Dialyzed tryptic digest of myosin is centrifuged at 21000 g for 60 minutes at 4° C. to yield myosin heavy meromyosin in the supernatant. This myosin heavy meromyosin achieved has a mixture of ATP sensitive and ATP insensitive heads. To purify myosin heavy meromyosin with ATP sensitive myosin S1 heads, F actin is added at an equimolar concentration to the unpurified myosin heavy meromyosin extract along with 1 mM ATP and magnesium chloride. Low salt assay buffer (25 mM potassium chloride, 10 mM imidazole, 2 mM magnesium chloride and 10 mM dithioerythritol with pH 7.0) was used as mixing solvent for the myosin heavy meromyosin purification step. Purified myosin heavy meromyosin with ATP sensitive heads are suspended in the supernatant when unpurified myosin heavy meromyosin with F actin, ATP and magnesium chloride is centrifuged with the speed of 21000 g at 4° C. ATP insensitive heads will bind F actin irreversibly thus forming the precipitate in the centrifugation step. Purified myosin heavy meromyosin with ATP sensitive heads are ready for the in vitro motility assay.
Rhodamine phalloidin labelling of F-actin F-actin and rhodamine phalloidin are mixed in 1:5 micro molar concentration ratio with low salt assay buffer. Rhodamine phalloidin binds in between the grooves of actin subunits of F-actin. The mixture of F-actin and rhodamine phalloidin is allowed to incubate overnight at 4° C. to allow maximal labelling of F-actin.
Glass coverslips are coated with freshly prepared 2% dichlorodimethylsilane in chloroform. Perfusion chamber is created by two halves of glass coverslips on a clean glass slide with help of vacuum grease. The perfusion chamber is then sealed with dichlorodimethylsilane treated coverslip with two side open to allow perfusion of buffer from one end and wicking on the opposite end. First step in preparation of slide is to immobilize either purified myosin heavy meromyosin or myosin thick filaments. These purified products are diluted with low salt assay buffer to achieve a final concentration of 0.1 μM before adding them in to perfusion chamber. Myosin heavy meromyosin or myosin thick filaments are allowed to immobilize on dichloro-dimethylsilane treated coverslip for a minute. Unbound myosin is washed away by low salt assay buffer once and multiple washes with assay buffer mixed with 0.5 mg/ml bovine serum albumin (AB-BSA) blocks the unbound protein. […]

[2] = biological target: skeletal muscle myosin S2 peptide (MYH2) (Homo sapiens, UniProt Q9UKX2); assay: GFS, uncoiling of skeletal myosin S2 peptide dimer; assay type: biochemical; parameters: host or cells: chemical synthesis; details: for Force required to uncoil S2 molecule: length 10 nm, in presence of the anti-S2 peptide, ± SEM
skeletal muscle myosin S2 peptide (MYH2), sequence (Q9UKX2 918-953 limits assumed): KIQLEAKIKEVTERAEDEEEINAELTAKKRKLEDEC
Excerpt: 3-aminopropyltriethoxysilane, acetone, coupling buffer (0.01 M pyridine in water with pH 6.0), 5% glutaraldehyde, quenching solution (1 M glycine in water with pH 7.0), blocking buffer (0.01 M Tris, 0.1% sodium azide, 0.1% bovine serum albumin, 0.15 M sodium chloride, and 0.001 M ethylenediaminetetraacetic acid with pH 7.0), wash buffer (0.01 M Tris, 0.1% sodium azide, 0.15 M sodium chloride, and 0.001 M ethylenediaminetetraacetic acid with pH 7.0) low salt buffer (0.1 M potassium chloride, 0.02 M imidazole, 5 mM magnesium chloride, with pH 7.0), 1-ethyl-3-(3-dimethyaminopropyl) carbodiimide, N-hydroxysuccinamide, iodoacetamide-succinimidyl ester, 8M urea solution (50 mM imidazole and 0.1 mM tris (2-carboxyethyl) phosphine with pH 7.0) monodisperse silica beads, glass slides, glass coverslips, vacuum grease, rabbit skeletal myosin, purified actin (G-actin), 1 μM human β-cardiac myosin S2 peptide, 1 μM human β-cardiac mutants myosin S2 peptide (E930del and E924K), 1 μM human skeletal myosin S2 peptide, 1 μM human smooth myosin S2 peptide, stabilizer peptide, and destabilizer peptide. A light microscope with an objective lens of 10× was mounted on an alt-azimuthal mount. A digital video camera of Sony, XCD-V60 was replaced with the ocular lenses. Extension springs on steel bracket held the alt-azimuthal mount suspended.
Gravitational force spectroscopy (GFS), is a single molecule force spectroscopy that utilizes gravitational force to measure absolute length of a single molecule at the given force calculated by the density of the bead suspending the molecule. This technique was discovered and developed in Root lab, which measures the forces in piconewton and sub-piconewton levels. Other than absolute length of a molecule, GFS measures force range required to uncoil, stretch or extend the molecule yielding a force-distance profile for the suspended molecule. Besides that, based on the force-distance profile, number of amino acids within the molecule can be calculated. […] The GFS allowed to test the flexibility or stability of a single molecule of myosin S2 peptide and also for the S2 peptides treated with anti-S2 peptides. Flexibility of myosin S2 is not dependent on assembly myosin as a thick filament or myosin in its single molecule form. The flexibility of myosin S2 region was reported to be similar in single molecule form or myosin in a thick filament assembly thus it could be conceived that the changes seen on flexibility of myosin S2 in presence of anti-S2 peptides would correlate to changes in myosin S2 flexibility for myosin in a thick filament form (Singh et al., 2018). The schematic diagram of GFS is shown below (schematic diagrams of GFS which has two modes: (FIG. 15) free-fall mode, (FIG. 16) rotational mode.
Free fall mode, another measurement variant of GFS which allows the user to get a force distance profile on a single molecule experiencing the gravitational force. Free fall mode allows a variable force by the virtue of gravity to be exerted on a single molecule. The GFS setup, light microscope with mounted camera on spring on alt-azimuthal platform, can be dropped. The start of free-fall mode force applied to the bead is zero or close to zero. […] As the platform goes towards equilibrium, trace of the acceleration decays. During the free fall mode, GFS has a single molecule which is suspended within an immobile edge and mobile bead will now experience the variable force which would be calculated by the product of mass of the bead and the acceleration of the GFS.
The product of the GFS acceleration and the mass of the bead will provide a force trace for the single molecule tethered between the immobile edge and mobile bead. The image processing would provide distance trace for the single molecule experiencing the free fall by the GFS. When this force trace is aligned with distance trace will yield the extension or the stretch experience by the single molecule under variable forces. […]

Force required to uncoil S2 molecule [2] | Force required to uncoil S2 molecule ([2]; listed as destabilizer peptide) | decrease of force required to uncoil the coiled coil ([2]; vs absence of anti-S2 peptide) | increase of force required to uncoil the coiled coil ([2]; vs absence of anti-S2 peptide) | SMILES | velocity distribution of actin thin filaments (histogram) ([1]; 20 nM and 100 nM peptide) | Average velocity of actin thin filaments ([1]; 20 nM peptide) | Average velocity of actin thin filaments ([1]; 100 nM peptide) | rise of motility of actin thin filaments ([1]; vs control)
1.84E−01 ± 4.00E−02 pN | 1.84×10^−1±4.00×10^−2 pN | 2.45 times | – | CSCC[C@H](NC(=O)[C@H](CCC(=O)O)NC(=O)[C@H](CCCNC(=N)N)NC(=O)[C@H](CCC(=O)O)NC(=O)[C@H](CC(=O)O)NC(=O)[C@H](CCC(=O)O)NC(=O)[C@H](CC(C)C)NC(=O)[C@H](CCCNC(=N)N)NC(=O)[C@H](CCC(=O)O)NC(=O)[C@H](CC(N)=O)NC(=O)[C@H](CCSC)NC(=O)[C@@H](N)CCC(=O)O)C(=O)N[C@@H](CCCCN)C(=O)N[C@@H](C)C(=O)N[C@@H](CCC(=O)O)C(=O)N[C@@H](CC(C)C)C(=O)N[C@H](C(=O)N[C@@H](C)C(=O)N[C@@H](CCCCN)C(=O)O)[C@@H](C)O [Destabilizer] | ~8.0 microns/second | 8.22±0.254 microns/second | 8.39±0.397 microns/second | 18%
6.28E−01 ± 4.32E−02 pN | – | – | 1.40 times | C[C@H](NC(=O)[C@H](CCCCN)NC(=O)[C@H](Cc1ccccc1)NC(=O)[C@H](CCCCN)NC(=O)[C@H](CCCCN)NC(=O)[C@H](CCCCN)NC(=O)[C@H](CCCCN)NC(=O)[C@H](CCCCN)NC(=O)[C@H](CCCCN)NC(=O)[C@H](CCCCN)NC(=O)[C@@H](N)CCCCN)C(=O)N[C@@H](CCCCN)C(=O)N[C@@H](CCCCN)C(=O)N[C@@H](CCCCN)C(=O)N[C@@H](CCCCN)C(=O)N[C@@H](CCCCN)C(=O)N[C@@H](CCCCN)C(=O)O [Stabilizer] | – | 6.18±0.28 microns/second | 6.21±0.14 microns/second | –
